From patent publication US20050136536A1, “Embryonic epithelial cells” (priority 2003, published 2005)

System: cytokeratin 7
Assay: differentiation of hES cells on gelatin-coated glass slides, cytokeratin 7 staining
Assay type: cell-based, human
Conditions: 300 nM AM580, serum medium, stained after 6 or 8 days
Experimental: H9 cells (Thomson, J. A., et al., “Embryonic stem cells lines derived from human blastocysts”, Science 282, 1145-1147 (1998)) were grown as described in Spradling, A., et al., “Stem cells find their niche”, Nature 414, 98-104 (2001), the entire contents of which are incorporated herein by reference. C2C12 cells were grown as described in Yaffee, D. & Saxel, O., “Serial passaging and differentiation of myogenic cells isolated from dystrophic mouse muscle”, Nature 270, 725-7 (1977). Specifically, hES cells (H9 clone) were grown on mouse embryo fibroblasts (Cell Essential) in KnockOut Medium (Gibco-BRL, Gaithersburg, Md.), a modified version of Dulbeco's modified Eagle's medium optimized for ES cells (Itskovitz-Eldor, et. al., (2000) Mol. Med. 6, 88-95, the contents of which are incorporated herein by reference). Tissue cover plates were covered with 0.1% gelatin (Sigma). Culture were grown in 5% CO2 and were routinely passaged every 5-6 days after disaggregating with 1 mg/ml collagenase type IV (Gibco-BRL). To induce formation of EBs, hES colonies were digested using either 1 mg/ml collagenase type IV or trypsin/EDTA (0.1%/1 mM) and transferred to petri dishes to allow their aggregation and prevent adherence to the plate. […]

SMILES: CC1(C)CCC(C)(C)c2cc(C(=O)Nc3ccc(C(=O)O)cc3)ccc21 [AM580]
- development of cytokeratin 7-positive cells: increases the development of cytokeratin 7-positive cells
